In paper PMC9305623, “Next generation GLP-1/GIP/glucagon triple agonists normalize body weight in obese mice” (Molecular Metabolism, 2022):
*1 amine or outer side, *2 acyl side, *3 side chain or, on linkers, in order; H or OH if unused. Where a SMILES comes first, the peptide text is derived from it. Side-chain parts run from the residue outwards. [ ]: non-standard residue; d: D form. The star is where a group is joined. C20 diacid = O=C(O)CCCCCCCCCCCCCCCCCCC(=O)*; γGlu = O=C(O)[C@H](CCC(=O)[*:2])N[*:1]; εLys = N[C@@H](CCCCN[*:1])C(=O)[*:2]; Aib = CC(C)(N)C(=O)O

Tests used:
Test in all cases: Receptor activation: cAMP production by CRE-luciferase reporter in stably transfected BHK cells
Assay type in all cases: cell-based
Conditions in all cases: compared to the native ligand for the receptor
hGLP-1 Receptor = target: T1, hGLP-1 Receptor (Homo sapiens, UniProt P43220)
T1 construct: expressed in transfected cells; host or cells: baby hamster kidney (BHK) cells, stably transfected, with CRE-firefly luciferase reporter
T1 sequence (P43220 24-463): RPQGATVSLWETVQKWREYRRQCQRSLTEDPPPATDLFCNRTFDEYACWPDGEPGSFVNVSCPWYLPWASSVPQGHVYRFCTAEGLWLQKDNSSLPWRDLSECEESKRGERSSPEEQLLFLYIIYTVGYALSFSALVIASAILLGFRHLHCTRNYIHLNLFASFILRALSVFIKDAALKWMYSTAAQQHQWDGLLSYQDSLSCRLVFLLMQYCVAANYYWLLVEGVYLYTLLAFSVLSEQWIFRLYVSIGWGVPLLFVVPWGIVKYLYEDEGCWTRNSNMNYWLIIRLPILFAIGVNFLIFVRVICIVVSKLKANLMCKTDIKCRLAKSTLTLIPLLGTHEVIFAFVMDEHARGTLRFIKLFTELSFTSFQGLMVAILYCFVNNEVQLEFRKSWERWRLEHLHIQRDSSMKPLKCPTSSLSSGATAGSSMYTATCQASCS
Protocol: (§1) Cyclic AMP (cAMP) production was assessed as a proxy for receptor activation using stably transfected baby hamster kidney (BHK) cell lines expressing the DNA for one individual receptor (GLP-1R, GIPR, GcgR; human- or mouse-specific sequence) and the DNA for the firefly luciferase reporter gene linked to the cAMP response element (CRE). The cells were kept in continuous culture at 37 °C and 5% CO2 in Dulbecco's Modified Eagle Medium (DMEM) supplemented with 10% heat-inactivated fetal bovine serum (HI-FBS), 300 μg/mL hygromycin, and 500 μg/mL G418; for cell lines expressing GIPR, the G418 concentration was lowered to 400 μg/mL. Cells were plated in a 96-well poly-D-lysine-coated plate at 5,000 cells per well in growth media and incubated overnight at 37 °C with 5% CO2. After the overnight incubation, the media was removed, the plate was washed once in Dulbecco's phosphase-buffered saline (DPBS), and 50 μL of assay buffer (DMEM without phenol red, 10 mM HEPES, 1x Glutamax, 1% ovalbumin, 0.1% Pluronic F-68) was added to each well. […] Aliquots of the dilution curves were added to the cell plate in a volume of 50 μL per well resulting in final assay concentrations ranging from 1 × 10^−14 to 1 × 10^−7 M. The assay plate was incubated for 3 h at 37 °C and 5% CO2. After the incubation, the assay plate was washed once with DPBS. A 100 μL aliquot of DPBS was added to each well followed by 100 μL of steadylite plus reagent (PerkinElmer). The assay plate was covered to protect reagent from light, shaken at 250 rpm at room temperature for 30 min, and read in a microtiter plate reader. EC50 values were calculated using Prism software (GraphPad) with the nonlinear regression log(agonist) vs. response. A minimum of two replicates were measured for each sample.

hGIP Receptor = target: T2, hGIP Receptor (Homo sapiens, UniProt P48546)
T2 construct: expressed in transfected cells; host or cells: baby hamster kidney (BHK) cells, stably transfected, with CRE-firefly luciferase reporter
T2 sequence (P48546 22-466): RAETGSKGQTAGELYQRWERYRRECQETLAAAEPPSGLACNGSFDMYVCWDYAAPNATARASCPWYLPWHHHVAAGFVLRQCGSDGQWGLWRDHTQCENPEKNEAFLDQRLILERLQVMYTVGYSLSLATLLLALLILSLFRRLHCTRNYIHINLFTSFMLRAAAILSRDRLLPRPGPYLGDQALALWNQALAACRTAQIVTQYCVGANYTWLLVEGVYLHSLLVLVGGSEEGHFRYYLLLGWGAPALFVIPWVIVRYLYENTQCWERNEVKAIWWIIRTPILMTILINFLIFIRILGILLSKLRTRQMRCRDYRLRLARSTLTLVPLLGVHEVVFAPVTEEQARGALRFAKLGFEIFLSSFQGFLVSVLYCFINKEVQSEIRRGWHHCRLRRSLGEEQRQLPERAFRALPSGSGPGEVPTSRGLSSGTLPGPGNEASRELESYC
Protocol: as §1

hGcg Receptor = target: T3, hGcg Receptor (Homo sapiens, UniProt P47871)
T3 construct: expressed in transfected cells; host or cells: baby hamster kidney (BHK) cells, stably transfected, with CRE-firefly luciferase reporter
T3 sequence (P47871 26-477): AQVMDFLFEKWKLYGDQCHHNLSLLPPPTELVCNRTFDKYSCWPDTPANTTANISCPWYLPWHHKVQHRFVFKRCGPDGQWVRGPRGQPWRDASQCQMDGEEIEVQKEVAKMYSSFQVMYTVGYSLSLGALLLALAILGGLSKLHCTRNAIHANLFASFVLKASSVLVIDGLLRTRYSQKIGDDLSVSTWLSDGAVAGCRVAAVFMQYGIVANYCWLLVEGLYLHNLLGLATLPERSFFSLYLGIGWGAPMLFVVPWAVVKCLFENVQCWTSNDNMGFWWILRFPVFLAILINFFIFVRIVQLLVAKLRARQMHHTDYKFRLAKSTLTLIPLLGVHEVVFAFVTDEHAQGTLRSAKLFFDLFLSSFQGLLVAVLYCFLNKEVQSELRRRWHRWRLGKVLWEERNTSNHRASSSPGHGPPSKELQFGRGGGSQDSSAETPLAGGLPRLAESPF
Protocol: as §1

SMILES | hGLP-1 Receptor Relative Potency % (hGLP-1 Receptor) | hGIP Receptor Relative Potency % (hGIP Receptor) | hGcg Receptor Relative Potency % (hGcg Receptor)
CC[C@H](C)[C@H](NC(=O)[C@H](CO)NC(=O)[C@H](Cc1ccc(O)cc1)NC(=O)[C@H](CC(=O)O)NC(=O)[C@H](CO)NC(=O)[C@@H](NC(=O)[C@H](Cc1ccccc1)NC(=O)[C@@H](NC(=O)CNC(=O)[C@H](CCC(N)=O)NC(=O)C(C)(C)NC(=O)[C@@H](N)Cc1c[nH]cn1)[C@@H](C)O)[C@@H](C)O)C(=O)N[C@@H](Cc1ccc(O)cc1)C(=O)N[C@@H](CC(C)C)C(=O)N[C@@H](CCC(=O)O)C(=O)N[C@@H](CCCCNC(=O)[C@@H](N)CCCCNC(=O)[C@@H](N)CCCCNC(=O)CC[C@H](NC(=O)CCCCCCCCCCCCCCCCCCC(=O)O)C(=O)O)C(=O)N[C@@H](CCC(N)=O)C(=O)N[C@@H](C)C(=O)N[C@@H](C)C(=O)NC(C)(C)C(=O)N[C@@H](CCC(=O)O)C(=O)N[C@@H](Cc1ccccc1)C(=O)N[C@H](C(=O)N[C@@H](CCC(N)=O)C(=O)N[C@@H](Cc1c[nH]c2ccccc12)C(=O)N[C@@H](CC(C)C)C(=O)N[C@@H](CC(C)C)C(=O)N[C@@H](CCC(=O)O)C(=O)NCC(=O)NCC(=O)N1CCC[C@H]1C(=O)N[C@@H](CO)C(=O)N[C@@H](CO)C(=O)NCC(=O)N[C@@H](C)C(=O)N1CCC[C@H]1C(=O)N1CCC[C@H]1C(=O)N1CCC[C@H]1C(=O)N[C@@H](CO)C(N)=O)C(C)C [Compound 12] (H-H[Aib]QGTFTSDYSIYLEK([εLys-εLys-γGlu-C20 diacid])QAA[Aib]EFVQWLLEGGPSSGAPPPS-NH2) | 410% | 19% | 3%
CC[C@H](C)[C@H](NC(=O)[C@H](CO)NC(=O)[C@H](Cc1ccc(O)cc1)NC(=O)[C@H](CC(=O)O)NC(=O)[C@H](CO)NC(=O)[C@@H](NC(=O)[C@H](Cc1ccccc1)NC(=O)[C@@H](NC(=O)CNC(=O)[C@H](Cc1c[nH]cn1)NC(=O)C(C)(C)NC(=O)[C@@H](N)Cc1c[nH]cn1)[C@@H](C)O)[C@@H](C)O)C(=O)N[C@@H](Cc1ccc(O)cc1)C(=O)N[C@@H](CC(C)C)C(=O)N[C@@H](CCC(=O)O)C(=O)N[C@@H](CCCCNC(=O)[C@@H](N)CCCCNC(=O)[C@@H](N)CCCCNC(=O)CC[C@H](NC(=O)CCCCCCCCCCCCCCCCCCC(=O)O)C(=O)O)C(=O)N[C@@H](CCC(N)=O)C(=O)N[C@@H](C)C(=O)N[C@@H](C)C(=O)NC(C)(C)C(=O)N[C@@H](CCC(=O)O)C(=O)N[C@@H](Cc1ccccc1)C(=O)N[C@H](C(=O)N[C@@H](CCC(N)=O)C(=O)N[C@@H](Cc1c[nH]c2ccccc12)C(=O)N[C@@H](CC(C)C)C(=O)N[C@@H](CC(C)C)C(=O)N[C@@H](CCC(=O)O)C(=O)NCC(=O)NCC(=O)N1CCC[C@H]1C(=O)N[C@@H](CO)C(=O)N[C@@H](CO)C(=O)NCC(=O)N[C@@H](C)C(=O)N1CCC[C@H]1C(=O)N1CCC[C@H]1C(=O)N1CCC[C@H]1C(=O)N[C@@H](CO)C(N)=O)C(C)C [Compound 13] (H-H[Aib]HGTFTSDYSIYLEK([εLys-εLys-γGlu-C20 diacid])QAA[Aib]EFVQWLLEGGPSSGAPPPS-NH2) | 340% | 146% | 19%
CC[C@H](C)[C@H](NC(=O)[C@H](CO)NC(=O)[C@H](Cc1ccc(O)cc1)NC(=O)[C@H](CC(=O)O)NC(=O)[C@H](CO)NC(=O)[C@@H](NC(=O)[C@H](Cc1ccccc1)NC(=O)[C@@H](NC(=O)CNC(=O)[C@H](Cc1c[nH]cn1)NC(=O)C(C)(C)NC(=O)[C@@H](N)Cc1c[nH]cn1)[C@@H](C)O)[C@@H](C)O)C(=O)N[C@@H](Cc1ccc(O)cc1)C(=O)N[C@@H](CC(C)C)C(=O)N[C@@H](CCC(=O)O)C(=O)N[C@@H](CCCCNC(=O)[C@@H](N)CCCCNC(=O)[C@@H](N)CCCCNC(=O)CC[C@H](NC(=O)CCCCCCCCCCCCCCCCCCC(=O)O)C(=O)O)C(=O)N[C@@H](CCCCN)C(=O)N[C@@H](C)C(=O)N[C@@H](C)C(=O)NC(C)(C)C(=O)N[C@@H](CCC(=O)O)C(=O)N[C@@H](Cc1ccccc1)C(=O)N[C@H](C(=O)N[C@@H](CCC(N)=O)C(=O)N[C@@H](Cc1c[nH]c2ccccc12)C(=O)N[C@@H](CC(C)C)C(=O)N[C@@H](CC(C)C)C(=O)N[C@@H](CCC(=O)O)C(=O)NCC(=O)NCC(=O)N1CCC[C@H]1C(=O)N[C@@H](CO)C(=O)N[C@@H](CO)C(=O)NCC(=O)N[C@@H](C)C(=O)N1CCC[C@H]1C(=O)N1CCC[C@H]1C(=O)N1CCC[C@H]1C(=O)N[C@@H](CO)C(N)=O)C(C)C [Compound 14] (H-H[Aib]HGTFTSDYSIYLEK([εLys-εLys-γGlu-C20 diacid])KAA[Aib]EFVQWLLEGGPSSGAPPPS-NH2) | 211% | 142% | 69%
CC[C@H](C)[C@H](NC(=O)[C@H](CO)NC(=O)[C@H](Cc1ccc(O)cc1)NC(=O)[C@H](CC(=O)O)NC(=O)[C@H](CO)NC(=O)[C@@H](NC(=O)[C@H](Cc1ccccc1)NC(=O)[C@@H](NC(=O)CNC(=O)[C@H](Cc1c[nH]cn1)NC(=O)C(C)(C)NC(=O)[C@@H](N)Cc1c[nH]cn1)[C@@H](C)O)[C@@H](C)O)C(=O)N[C@@H](Cc1ccc(O)cc1)C(=O)N[C@@H](CC(C)C)C(=O)N[C@@H](CCC(=O)O)C(=O)N[C@@H](CCCCNC(=O)[C@@H](N)CCCCNC(=O)[C@@H](N)CCCCNC(=O)CC[C@H](NC(=O)CCCCCCCCCCCCCCCCCCC(=O)O)C(=O)O)C(=O)N[C@@H](CCC(N)=O)C(=O)N[C@@H](Cc1ccc(O)cc1)C(=O)N[C@@H](C)C(=O)NC(C)(C)C(=O)N[C@@H](CCC(=O)O)C(=O)N[C@@H](Cc1ccccc1)C(=O)N[C@H](C(=O)N[C@@H](CCC(N)=O)C(=O)N[C@@H](Cc1c[nH]c2ccccc12)C(=O)N[C@@H](CC(C)C)C(=O)N[C@@H](CC(C)C)C(=O)N[C@@H](CCC(=O)O)C(=O)NCC(=O)NCC(=O)N1CCC[C@H]1C(=O)N[C@@H](CO)C(=O)N[C@@H](CO)C(=O)NCC(=O)N[C@@H](C)C(=O)N1CCC[C@H]1C(=O)N1CCC[C@H]1C(=O)N1CCC[C@H]1C(=O)N[C@@H](CO)C(N)=O)C(C)C [Compound 15] (H-H[Aib]HGTFTSDYSIYLEK([εLys-εLys-γGlu-C20 diacid])QYA[Aib]EFVQWLLEGGPSSGAPPPS-NH2) | 101% | 135% | 72%
